Where “and” joins values, the source holds several entries; their conditions need not be identical. Equal entries are not always repeated. Inconclusive results and toxic doses are left out. How the source made its calls: active means survival T/C of 150% or more; inactive means T/C below 125% in these data.
System: P388 leukemia ip, CD2F1 mice, survival T/C
Experiment: NCI In Vivo Anticancer Drug Screen. Data for tumor model P388 Leukemia (intraperitoneal) in CD2F1 (CDF1) mice
Settings: endpoint: median survival time, higher = longer survival
Outline: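 Mice carrying the transplanted tumor received test compound or vehicle. Survival was recorded in each group, and the value is the treated-group measurement divided by that of the vehicle-treated control group.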

[1] = dose: 50.0 mg/kg/injection, schedule: Q01DX005 (ip), vehicle: saline with Tween-80
[2] = dose: 100.0 mg/kg/injection, schedule: Q01DX005 (ip), vehicle: saline with Tween-80
[3] = dose: 100.0 mg/kg/injection, schedule: Q01DX009 (ip), vehicle: saline
[4] = dose: 200.0 mg/kg/injection, schedule: Q01DX009 (ip), vehicle: saline
[5] = dose: 60.0 mg/kg/injection, schedule: Q01DX005 (ip), vehicle: saline with Tween-80
[6] = dose: 120.0 mg/kg/injection, schedule: Q01DX005 (ip), vehicle: saline with Tween-80
[7] = dose: 240.0 mg/kg/injection, schedule: Q01DX005 (ip), vehicle: saline with Tween-80
[8] = dose: 50.0 mg/kg/injection, schedule: Q01DX009 (ip), vehicle: saline with Tween-80
[9] = dose: 100.0 mg/kg/injection, schedule: Q01DX009 (ip), vehicle: saline with Tween-80
[10] = dose: 12.5 mg/kg/injection, schedule: Q01DX009 (ip), vehicle: water
[11] = dose: 25.0 mg/kg/injection, schedule: Q01DX009 (ip), vehicle: water
[12] = dose: 50.0 mg/kg/injection, schedule: Q01DX009 (ip), vehicle: water
[13] = dose: 25.0 mg/kg/injection, schedule: Q01DX009 (ip), vehicle: saline with Tween-80

Measured: T/C

C=CN=NNc1ccc(OC)cc1
inactive: dose: 100.0 mg/kg/injection, schedule: Q04DX003 (ip), vehicle: saline + Tween-80 + alcohol 116 % of control | dose: 200.0 mg/kg/injection, schedule: Q04DX003 (ip), vehicle: saline + Tween-80 + alcohol 106 % of control

CCCCCCCN(CCCCCCC)CCCC(O)c1cccc2ccccc12 (stereo unspecified)
inactive: dose: 12.5 mg/kg/injection, schedule: Q01DX005 (ip), vehicle: saline with Tween-80 104 % of control | dose: 25.0 mg/kg/injection, schedule: Q01DX005 (ip), vehicle: saline with Tween-80 107 % of control | [1] 103 % of control | [2] 107 % of control

Nc1ccccc1N=C(CC(=O)c1ccco1)C(F)(F)F
inactive: dose: 6.25 mg/kg/injection, schedule: Q01DX009 (ip), vehicle: saline 99 % of control | dose: 25.0 mg/kg/injection, schedule: Q01DX009 (ip), vehicle: saline 91 % of control | [3] 88 % of control | [4] 105 % of control

CC(=O)C(C(C)=O)C(C(C)=O)C(C)=O.[Cu]
inactive: dose: 1.5 mg/kg/injection, schedule: Q01DX005 (ip), vehicle: saline with Tween-80 110 % of control | dose: 3.0 mg/kg/injection, schedule: Q01DX005 (ip), vehicle: saline with Tween-80 107 % of control | dose: 6.0 mg/kg/injection, schedule: Q01DX005 (ip), vehicle: saline with Tween-80 99 % of control | dose: 6.25 mg/kg/injection, schedule: Q01DX005 (ip), vehicle: saline with Tween-80 104 % of control

O=C(CCl)NC(Cc1cccs1)C(=O)O (stereo unspecified)
inactive: dose: 50.0 mg/kg/injection, schedule: Q01DX009 (ip), vehicle: saline 98 % of control | [3] 93 % of control | [4] 96 % of control

CCCCCC(=O)C(CCCC)(c1nc2n(c1O)C(=N)N=N2)c1nc2n(c1O)C(=N)N=N2 (stereo unspecified)
inactive: [1] 107 % of control | [2] 93 % of control

CSCS(=O)CC(C)C (stereo unspecified)
inactive: dose: 50.0 mg/kg/injection, schedule: Q01DX005 (ip), vehicle: water 104 % of control | dose: 100.0 mg/kg/injection, schedule: Q01DX005 (ip), vehicle: water 102 % of control | dose: 200.0 mg/kg/injection, schedule: Q01DX005 (ip), vehicle: water 105 % of control

COc1ccc(C2SCC(=O)N2c2nncs2)cc1F (stereo unspecified)
inactive: dose: 60.0 mg/kg/injection, schedule: Q01DX005 (ip), vehicle: Klucel (hydroxypropylcellulose) (HPC) 92 % of control | dose: 120.0 mg/kg/injection, schedule: Q01DX005 (ip), vehicle: Klucel (hydroxypropylcellulose) (HPC) 96 % of control | dose: 240.0 mg/kg/injection, schedule: Q01DX005 (ip), vehicle: Klucel (hydroxypropylcellulose) (HPC) 92 % of control

CCN(Cc1ccccc1)C(=O)Nc1c(Cl)cccc1Cl
inactive: [5] 92 % of control | [6] 95 % of control | [7] 86 % of control

CC(C)(C)SC(=S)SCC(=O)c1ccc(Cl)cc1
inactive: [5] 99 % of control | [6] 98 % of control | [7] 100 % of control

Cn1c([N+](=O)[O-])cnc1CSC(=S)N1CCN(C(=S)SCc2ncc([N+](=O)[O-])n2C)CC1
inactive: [8] 99 % of control and 104 % of control and 96 % of control | [9] 101 % of control and 93 % of control and 95 % of control | dose: 200.0 mg/kg/injection, schedule: Q01DX009 (ip), vehicle: saline with Tween-80 102 % of control and 107 % of control and 92 % of control

CCOc1c/c(=N\N=C(/C)c2ccc(Cl)cc2)n(C)c(=O)n1C
inactive: dose: 50.0 mg/kg/injection, schedule: Q01DX009 (ip), vehicle: Klucel (hydroxypropylcellulose) (HPC) 93 % of control | dose: 100.0 mg/kg/injection, schedule: Q01DX009 (ip), vehicle: Klucel (hydroxypropylcellulose) (HPC) 96 % of control | dose: 200.0 mg/kg/injection, schedule: Q01DX009 (ip), vehicle: Klucel (hydroxypropylcellulose) (HPC) 100 % of control

CC(=O)NC1CCOC1=O (stereo unspecified)
inactive: [10] 95 % of control | [11] 87 % of control | [12] 109 % of control | dose: 100.0 mg/kg/injection, schedule: Q01DX009 (ip), vehicle: water 111 % of control | dose: 200.0 mg/kg/injection, schedule: Q01DX009 (ip), vehicle: water 92 % of control

C=CCCn1ccnc1[N+](=O)[O-]
inactive: [10] 94 % of control | [11] 93 % of control | [12] 100 % of control

CC(=O)N(CC1OC2OC(C)(C)OC2C2OC(C)(C)OC12)N=Nc1ccc([N+](=O)[O-])cc1 (stereo unspecified)
inactive: dose: 50.0 mg/kg/injection, schedule: Q01DX005 (ip), vehicle: Klucel (hydroxypropylcellulose) (HPC) 100 % of control | dose: 100.0 mg/kg/injection, schedule: Q01DX005 (ip), vehicle: Klucel (hydroxypropylcellulose) (HPC) 89 % of control | dose: 200.0 mg/kg/injection, schedule: Q01DX005 (ip), vehicle: Klucel (hydroxypropylcellulose) (HPC) 91 % of control

COc1cc2c(cc1C1CCCCCc3c1[nH]c1ccccc31)C1CCCCC1N2C (stereo unspecified)
inactive: dose: 12.5 mg/kg/injection, schedule: Q01DX001 (ip), vehicle: distilled water + Tween-80 100 % of control | dose: 25.0 mg/kg/injection, schedule: Q01DX001 (ip), vehicle: distilled water + Tween-80 100 % of control | dose: 50.0 mg/kg/injection, schedule: Q01DX001 (ip), vehicle: distilled water + Tween-80 100 % of control | dose: 100.0 mg/kg/injection, schedule: Q01DX001 (ip), vehicle: distilled water + Tween-80 95 % of control | dose: 200.0 mg/kg/injection, schedule: Q01DX001 (ip), vehicle: distilled water + Tween-80 91 % of control

CSC(=S)N/N=C(/C)CC(C)C
inactive: dose: 12.5 mg/kg/injection, schedule: Q01DX009 (ip), vehicle: saline with Tween-80 105 % of control | [13] 120 % of control | [8] 100 % of control

CC(=O)OCC1OC(OC(C)=O)C(NC(=O)CN(Cc2ccccc2)S(C)(=O)=O)C(OC(C)=O)C1OC(C)=O (stereo unspecified)
inactive: dose: 12.5 mg/kg/injection, schedule: Q01DX009 (ip), vehicle: other 91 % of control | dose: 25.0 mg/kg/injection, schedule: Q01DX009 (ip), vehicle: other 99 % of control | dose: 50.0 mg/kg/injection, schedule: Q01DX009 (ip), vehicle: other 96 % of control | dose: 100.0 mg/kg/injection, schedule: Q01DX009 (ip), vehicle: other 93 % of control | dose: 200.0 mg/kg/injection, schedule: Q01DX009 (ip), vehicle: other 105 % of control

O=C1NN2CCCN=C2c2ncccc21
inactive: [5] 104 % of control | [6] 103 % of control | [7] 108 % of control

CCCCC/C(C)=C\CBr
inactive: [13] 96 % of control | [8] 99 % of control | [9] 89 % of control

CC[C@@H]1CN2CCc3c([nH]c4ccccc34)[C@@H]2C[C@@H]1/C(=C\OC)C(=O)OC
inactive: dose: 25.0 mg/kg/injection, schedule: Q01DX005 (ip), vehicle: saline 100 % of control and 96 % of control | dose: 50.0 mg/kg/injection, schedule: Q01DX005 (ip), vehicle: saline 98 % of control and 107 % of control and 108 % of control | dose: 100.0 mg/kg/injection, schedule: Q01DX005 (ip), vehicle: saline 109 % of control (2×) and 123 % of control

O=C1N(CO)C2C(N1CO)N(CO)C(=O)N2CO (stereo unspecified)
inactive: dose: 100.0 mg/kg/injection, schedule: Q04DX003 (ip), vehicle: saline 109 % of control | dose: 200.0 mg/kg/injection, schedule: Q04DX003 (ip), vehicle: saline 118 % of control | dose: 400.0 mg/kg/injection, schedule: Q04DX003 (ip), vehicle: saline 118 % of control

CCCC12C=C(OC)C(=O)C=C1OC(c1ccc3c(c1)OCO3)C2C (stereo unspecified)
inactive: dose: 8.75 mg/kg/injection, schedule: Q01DX005 (ip), vehicle: Klucel (hydroxypropylcellulose) (HPC) 106 % of control | dose: 17.5 mg/kg/injection, schedule: Q01DX005 (ip), vehicle: Klucel (hydroxypropylcellulose) (HPC) 104 % of control | dose: 35.0 mg/kg/injection, schedule: Q01DX005 (ip), vehicle: Klucel (hydroxypropylcellulose) (HPC) 104 % of control

— PubChem BioAssay AID330 (DTP/NCI, 2004)
